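Five compound concentrations were applied to cells in 96-well plates for 48 hours; endpoints were derived by simple linear interpolation of the resulting dose-response curve. The concentration for 50% growth inhibition is given as GI50.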 Activity calls are given as the source filed them. Cut-off read from the data, not from the text of the source: active = GI50 up to about 1.1 µM and inactive = higher.
What was measured:
Test in all cases: NCI tumour cell line growth inhibition, 48 h
MDA-MB-231 = tested on: MDA-MB-231
OVCAR-8 = tested on: OVCAR-8
UO-31 = tested on: UO-31
SNB-19 = tested on: SNB-19
NCI/ADR-RES = tested on: NCI/ADR-RES
OVCAR-5 = tested on: OVCAR-5
HT-29 = tested on: HT-29
MDA-N = tested on: MDA-N
OVCAR-3 = tested on: OVCAR-3
786-0 = tested on: 786-0
SK-MEL-2 = tested on: SK-MEL-2
SW-620 = tested on: SW-620
SF-268 = tested on: SF-268
COLO 205 = tested on: COLO 205
HOP-92 = tested on: HOP-92
UACC-257 = tested on: UACC-257
ACHN = tested on: ACHN
HCT-116 = tested on: HCT-116

SMILES	GI50 (MDA-MB-231)	GI50 (OVCAR-8)	GI50 (UO-31)	GI50 (SNB-19)	GI50 (NCI/ADR-RES)	GI50 (OVCAR-5)	GI50 (HT-29)	GI50 (MDA-N)	GI50 (OVCAR-3)	GI50 (786-0)	GI50 (SK-MEL-2)	GI50 (SW-620)	GI50 (SF-268)	GI50 (COLO 205)	GI50 (HOP-92)	GI50 (UACC-257)	GI50 (ACHN)	GI50 (HCT-116)
COc1cc2[nH]c(=O)c3cc(C)cc4c(Cl)nc(c1OC)c2c43	76.6 µM (inactive)	95.9 µM (inactive)	> 100 µM (inactive)	42 µM (inactive)	> 100 µM (inactive)	> 100 µM (inactive)	89.9 µM (inactive)	> 100 µM (inactive)	> 100 µM (inactive)	20 µM (inactive)	32.9 µM (inactive)	> 100 µM (inactive)	20.4 µM (inactive)	72.6 µM (inactive)	35.9 µM (inactive)	> 100 µM (inactive)	40.6 µM (inactive)	40.1 µM (inactive)
CO[C@H]1O[C@@H]2CO[C@@H](c3ccccc3)O[C@H]2[C@@H]2CC=CCC[C@]12O	> 100 µM (inactive)	73.1 µM (inactive)	48.2 µM (inactive)	> 100 µM (inactive)	44.4 µM (inactive)	> 100 µM (inactive)	40 µM (inactive)	50.9 µM (inactive)	69.7 µM (inactive)	61.2 µM (inactive)	65.5 µM (inactive)	54.1 µM (inactive)	21.8 µM (inactive)	48.5 µM (inactive)	49.8 µM (inactive)	35.6 µM (inactive)	76.4 µM (inactive)	30.1 µM (inactive)
O=c1c2ccccc2nc(Nc2cccc(Cl)c2)n1/N=C/C=C/c1ccccc1	71 µM (inactive)	39.2 µM (inactive)	> 100 µM (inactive)	47.2 µM (inactive)	63.5 µM (inactive)	> 100 µM (inactive)	61.9 µM (inactive)	> 100 µM (inactive)	73.1 µM (inactive)	48.5 µM (inactive)	> 100 µM (inactive)	51.5 µM (inactive)	53 µM (inactive)	> 100 µM (inactive)	91.2 µM (inactive)	85.9 µM (inactive)	50.7 µM (inactive)	60.4 µM (inactive)
CC(C)(C)OC(=O)NC1CC2(C=C(Br)C(=O)C(Br)=C2)OC1=O (stereo not given)	17.7 µM (inactive)	7.14 µM (inactive)	5.27 µM (inactive)	20.7 µM (inactive)	14.8 µM (inactive)	18.3 µM (inactive)	5.74 µM (inactive)	5.74 µM (inactive)	10.4 µM (inactive)	2.72 µM (inactive)	16 µM (inactive)	2.01 µM (inactive)	17.4 µM (inactive)	3.59 µM (inactive)	12.5 µM (inactive)	5.4 µM (inactive)	4.23 µM (inactive)	3.28 µM (inactive)
COc1ccc(N2C(=O)C3c4[nH]c5ccc(C)cc5c4C4CCC(C(C)C)CC4C3C2=O)cc1 (stereo not given)	> 100 µM (inactive)	> 100 µM (inactive)	> 100 µM (inactive)	> 100 µM (inactive)	> 100 µM (inactive)	> 100 µM (inactive)	> 100 µM (inactive)	> 100 µM (inactive)	> 100 µM (inactive)	> 100 µM (inactive)	> 100 µM (inactive)	> 100 µM (inactive)	75.5 µM (inactive)	> 100 µM (inactive)	> 100 µM (inactive)	> 100 µM (inactive)	> 100 µM (inactive)	> 100 µM (inactive)
CC(C)(N)CO[C@H]1C[C@H]2CC[C@@]1(C)C2(C)C	17.8 µM (inactive)	20.6 µM (inactive)	16.5 µM (inactive)	24.8 µM (inactive)	32.4 µM (inactive)	18.5 µM (inactive)	12.4 µM (inactive)	15.5 µM (inactive)	49.8 µM (inactive)	16.2 µM (inactive)	18.5 µM (inactive)	23.7 µM (inactive)	44.9 µM (inactive)	16.1 µM (inactive)	14.2 µM (inactive)	17.8 µM (inactive)	34.9 µM (inactive)	15.9 µM (inactive)
COc1ccc(SC(C)(SC)c2ccccn2)c(OC)n1 (stereo not given)	> 100 µM (inactive)	75.7 µM (inactive)	> 100 µM (inactive)	> 100 µM (inactive)	53.6 µM (inactive)	> 100 µM (inactive)	42.7 µM (inactive)	84.1 µM (inactive)	52.8 µM (inactive)	66.7 µM (inactive)	30.8 µM (inactive)	> 100 µM (inactive)	> 100 µM (inactive)	31.6 µM (inactive)	70 µM (inactive)	67.3 µM (inactive)	> 100 µM (inactive)	48.3 µM (inactive)
OCCN(CCO)c1ccc2c(C(F)(F)F)cc(C(F)(F)F)nc2n1	> 100 µM (inactive)	> 77.6 µM (inactive)	> 100 µM (inactive)	> 100 µM (inactive)	> 80.4 µM (inactive)	> 100 µM (inactive)	> 100 µM (inactive)	> 100 µM (inactive)	> 100 µM (inactive)	> 100 µM (inactive)	> 100 µM (inactive)	> 100 µM (inactive)	> 100 µM (inactive)	> 100 µM (inactive)	> 100 µM (inactive)	> 100 µM (inactive)	> 100 µM (inactive)	> 100 µM (inactive)
O=C1Nc2ccccc2/C1=N\c1cccc2ncccc12	> 100 µM (inactive)	> 100 µM (inactive)	> 100 µM (inactive)	> 100 µM (inactive)	> 100 µM (inactive)	63 µM (inactive)	58.3 µM (inactive)	34.5 µM (inactive)	63.7 µM (inactive)	> 100 µM (inactive)	> 100 µM (inactive)	> 100 µM (inactive)	67.1 µM (inactive)	> 100 µM (inactive)	42.5 µM (inactive)	41 µM (inactive)	> 100 µM (inactive)	58.7 µM (inactive)
CC(C)(C)c1ccccc1N1C(=O)c2ccc3c4c(ccc(c24)C1=O)N(c1ccccc1C(C)(C)C)C3=O	> 100 µM (inactive)	> 100 µM (inactive)	> 100 µM (inactive)	> 100 µM (inactive)	> 100 µM (inactive)	> 100 µM (inactive)	> 100 µM (inactive)	> 100 µM (inactive)	> 100 µM (inactive)	> 100 µM (inactive)	> 100 µM (inactive)	> 100 µM (inactive)	> 100 µM (inactive)	> 100 µM (inactive)	6.43 µM (inactive)	> 100 µM (inactive)	> 100 µM (inactive)	> 100 µM (inactive)
Clc1cc(-c2csc(Cl)c2)cs1	> 100 µM (inactive)	> 100 µM (inactive)	> 100 µM (inactive)	> 100 µM (inactive)	> 100 µM (inactive)	> 100 µM (inactive)	> 100 µM (inactive)	> 100 µM (inactive)	> 100 µM (inactive)	> 100 µM (inactive)	> 100 µM (inactive)	> 100 µM (inactive)	> 100 µM (inactive)	> 100 µM (inactive)	> 100 µM (inactive)	> 100 µM (inactive)	> 100 µM (inactive)	> 100 µM (inactive)
CC(C)(C)N/N=C(\C(=O)Nc1ccc([N+](=O)[O-])cc1[N+](=O)[O-])c1nc2ccc([N+](=O)[O-])cc2nc1O	> 100 µM (inactive)	48.5 µM (inactive)	82.2 µM (inactive)	> 100 µM (inactive)	> 100 µM (inactive)	> 100 µM (inactive)	> 100 µM (inactive)	> 100 µM (inactive)	> 100 µM (inactive)	> 100 µM (inactive)	> 100 µM (inactive)	> 100 µM (inactive)	> 100 µM (inactive)	24.5 µM (inactive)	> 100 µM (inactive)	> 100 µM (inactive)	> 100 µM (inactive)	68.5 µM (inactive)
C=C1C(=O)O[C@@H]2C[C@@H](C)[C@@H]3C=CC(=O)[C@@]3(C)[C@@H](OC(=O)CCCC(=O)O[C@H]3[C@@H]4C(=C)C(=O)O[C@@H]4C[C@@H](C)[C@@H]4C=CC(=O)[C@]43C)[C@H]12	0.0284 µM (active)	0.0131 µM (active)	0.135 µM (active)	1.05 µM (active)	0.396 µM (active)	0.139 µM (active)	0.0352 µM (active)	0.0183 µM (active)	0.0398 µM (active)	0.0171 µM (active)	0.152 µM (active)	0.0144 µM (active)	0.0693 µM (active)	0.0197 µM (active)	0.034 µM (active)	0.114 µM (active)	0.0266 µM (active)	0.0143 µM (active)
CCOC(=O)C#Cc1cccc(C#CC(=O)OCC)c1	5.79 µM (inactive)	6.98 µM (inactive)	4.51 µM (inactive)	5.71 µM (inactive)	6.05 µM (inactive)	1.14 µM (inactive)	4.81 µM (inactive)	2.32 µM (inactive)	6.07 µM (inactive)	4.47 µM (inactive)	2.19 µM (inactive)	5.25 µM (inactive)	6.52 µM (inactive)	5.32 µM (inactive)	5.87 µM (inactive)	10.2 µM (inactive)	6.03 µM (inactive)	2.37 µM (inactive)
COC1=Nc2ccccc2S(=O)(=O)C=C1	13.2 µM (inactive)	4.35 µM (inactive)	5.46 µM (inactive)	24.7 µM (inactive)	13.1 µM (inactive)	16.9 µM (inactive)	9.89 µM (inactive)	7.4 µM (inactive)	2.78 µM (inactive)	3.29 µM (inactive)	16.6 µM (inactive)	1.73 µM (inactive)	20.8 µM (inactive)	1.79 µM (inactive)	4.81 µM (inactive)	7.69 µM (inactive)	3.07 µM (inactive)	1.74 µM (inactive)

Reference: ChEMBL document CHEMBL1201862, “PubChem BioAssay data set” (2004)
